Active and inactive are the calls of the source.
Tests used:
[1] = biological target: Large T antigen (Simian virus 40, UniProt P03070); assay type: functional, Betapolyomavirus macacae;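 also: Confirmatory-stage PubChem screen for compounds that inhibit SV40 T antigen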
[2] = biological target: T1, Cytochrome P450 1A2 (Homo sapiens, UniProt P05177);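 also: PubChem cytochrome P450 panel assay, CYP1A2 panel member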
T1 sequence (P05177 whole entry): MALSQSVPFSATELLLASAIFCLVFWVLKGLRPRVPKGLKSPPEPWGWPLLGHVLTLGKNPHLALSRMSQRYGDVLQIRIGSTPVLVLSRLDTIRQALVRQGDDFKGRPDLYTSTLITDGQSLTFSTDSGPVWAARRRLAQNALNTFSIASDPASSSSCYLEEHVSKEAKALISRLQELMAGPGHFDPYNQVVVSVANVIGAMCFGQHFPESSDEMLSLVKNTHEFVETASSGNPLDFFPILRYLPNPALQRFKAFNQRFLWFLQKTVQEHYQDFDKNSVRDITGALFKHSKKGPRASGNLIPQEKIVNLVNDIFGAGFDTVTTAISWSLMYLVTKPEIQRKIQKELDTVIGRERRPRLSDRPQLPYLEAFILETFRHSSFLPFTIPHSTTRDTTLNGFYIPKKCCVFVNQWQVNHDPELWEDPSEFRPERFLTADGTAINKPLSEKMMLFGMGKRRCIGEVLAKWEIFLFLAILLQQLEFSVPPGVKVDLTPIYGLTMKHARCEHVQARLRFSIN

[3] = biological target: Cytochrome P450 2C19 (Homo sapiens, UniProt P33261); test: Cytochrome panel assay with activity outcomes. Panel member name: p450-cyp2c19 Compounds with AC50 equal or less than 10 uM are considered active; assay type: functional; details: read-out: AC50
[4] = test system: H9c2; test: cells; assay type: functional, cell-based; details: Rattus norvegicus, H9c2, Myocardium;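 also: confirmatory concentration-response retest of ultra-high-throughput screening hits for modulation of myocardial damage; cell death induced by hydrogen peroxide oxidative stress; compound pretreatment for 60 min then peroxide exposure for 2 h; potency is for protecting the cells against peroxide damage rather than for killing them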
[5] = biological target: T2, Replicative DNA helicase DnaB (Mycobacterium tuberculosis, UniProt P9WMR3); test: DnaB intein splicing inhibitors, dose response, biochemical, cell-free fluorescence (AID 449749); assay type: functional
T2 sequence (P9WMR3 whole entry): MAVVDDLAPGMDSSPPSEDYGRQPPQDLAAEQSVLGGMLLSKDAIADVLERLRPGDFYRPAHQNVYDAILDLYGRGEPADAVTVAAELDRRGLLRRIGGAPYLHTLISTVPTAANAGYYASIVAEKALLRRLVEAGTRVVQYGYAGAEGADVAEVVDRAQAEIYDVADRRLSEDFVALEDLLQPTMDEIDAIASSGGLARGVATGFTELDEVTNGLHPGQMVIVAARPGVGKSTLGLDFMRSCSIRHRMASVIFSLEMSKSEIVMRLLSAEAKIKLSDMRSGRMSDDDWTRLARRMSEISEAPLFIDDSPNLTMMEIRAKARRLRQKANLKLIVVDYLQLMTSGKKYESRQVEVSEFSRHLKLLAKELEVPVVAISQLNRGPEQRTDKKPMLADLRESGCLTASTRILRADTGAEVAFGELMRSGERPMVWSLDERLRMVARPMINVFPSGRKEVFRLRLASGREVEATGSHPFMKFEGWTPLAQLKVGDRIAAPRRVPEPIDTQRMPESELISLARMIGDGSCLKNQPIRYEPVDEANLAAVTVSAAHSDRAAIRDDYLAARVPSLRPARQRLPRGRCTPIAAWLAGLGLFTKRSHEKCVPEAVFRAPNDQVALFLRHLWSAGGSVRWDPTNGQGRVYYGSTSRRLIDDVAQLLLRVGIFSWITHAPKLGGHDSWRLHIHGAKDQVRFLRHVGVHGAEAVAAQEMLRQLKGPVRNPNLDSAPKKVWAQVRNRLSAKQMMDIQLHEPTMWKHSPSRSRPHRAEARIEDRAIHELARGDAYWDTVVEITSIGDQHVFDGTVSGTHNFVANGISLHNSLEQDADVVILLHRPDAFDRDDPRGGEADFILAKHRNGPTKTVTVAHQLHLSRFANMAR

[6] = biological target: T3, Protein RecA (Mycobacterium tuberculosis, UniProt P9WHJ3); test: Fluorescence Cell-Free Homogeneous Dose Retest to Identify Inhibitors of RecA-Intein Splicing Activity. [Related pubchem assays (depositor defined):AID2097, AID2223, AID489010, AID492950]; assay type: functional
T3 sequence (P9WHJ3 whole entry): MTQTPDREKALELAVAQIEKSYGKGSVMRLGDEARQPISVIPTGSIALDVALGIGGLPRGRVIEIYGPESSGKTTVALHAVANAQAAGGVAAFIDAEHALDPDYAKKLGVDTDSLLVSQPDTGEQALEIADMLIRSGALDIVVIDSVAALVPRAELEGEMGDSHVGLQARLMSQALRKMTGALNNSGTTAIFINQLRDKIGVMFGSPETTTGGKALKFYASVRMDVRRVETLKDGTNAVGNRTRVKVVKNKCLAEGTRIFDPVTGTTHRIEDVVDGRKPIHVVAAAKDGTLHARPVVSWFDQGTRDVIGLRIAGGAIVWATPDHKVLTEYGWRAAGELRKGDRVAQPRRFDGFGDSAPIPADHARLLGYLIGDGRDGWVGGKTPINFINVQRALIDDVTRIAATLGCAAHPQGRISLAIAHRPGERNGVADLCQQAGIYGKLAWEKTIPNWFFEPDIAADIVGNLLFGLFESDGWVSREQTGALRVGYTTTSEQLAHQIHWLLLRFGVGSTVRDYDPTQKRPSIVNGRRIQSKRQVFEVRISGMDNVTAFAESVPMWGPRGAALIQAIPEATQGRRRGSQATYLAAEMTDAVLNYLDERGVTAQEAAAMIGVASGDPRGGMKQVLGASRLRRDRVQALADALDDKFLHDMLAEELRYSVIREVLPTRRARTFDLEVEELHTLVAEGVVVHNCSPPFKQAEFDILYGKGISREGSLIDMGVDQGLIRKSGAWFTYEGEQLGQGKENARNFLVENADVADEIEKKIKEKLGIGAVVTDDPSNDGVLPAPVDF

[7] = biological target: T4, Calpain-2 catalytic subunit (Sus scrofa, UniProt P43367); test: m-calpain protease blockers, concentration series – biochemical, fluorogenic peptide substrate, dose response (AID 1420); assay type: functional
T4 sequence (P43367 whole entry): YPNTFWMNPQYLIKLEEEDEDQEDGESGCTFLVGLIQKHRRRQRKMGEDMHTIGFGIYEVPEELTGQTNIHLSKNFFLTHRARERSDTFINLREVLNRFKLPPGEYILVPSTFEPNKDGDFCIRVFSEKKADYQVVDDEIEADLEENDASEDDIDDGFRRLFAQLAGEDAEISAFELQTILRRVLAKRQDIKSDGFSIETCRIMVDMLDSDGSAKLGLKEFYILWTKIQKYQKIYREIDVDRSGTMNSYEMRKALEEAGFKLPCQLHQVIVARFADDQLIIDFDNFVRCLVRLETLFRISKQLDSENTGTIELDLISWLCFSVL

[8] = fluconazole-exposed Candida albicans growth modulators – fluorescence, retest, confirmation (AID 2467); assay type: functional, cell-based
[9] = NIH-3T3 fibroblast cytotoxicity, dose response, cytotoxicity control, cell-based, fluorescence, Alamar Blue, secondary assay (AID 2327); assay type: functional;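 also: NIH-3T3 mouse fibroblasts cultured with fluconazole at 8 µg/mL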
[10] = test system: H4; test: Luminescence Cell-Based Dose Response HTS to Identify Activators of 5'UTR Stem-Loop Driven Prion Protein mRNA Translation in H4 Neuroglioblastoma Cells. [Related pubchem assays: 1829 (Project Summary), 1814 (Primary HTS)]; assay type: functional; details: Homo sapiens
[11] = Luminescence Cell-Based Dose Response HTS to Identify Activators of Luciferase Translation or Activity in H4 […] Cells. [Related pubchem assays: 1829 (Project Summary), 1814 (Primary HTS)]; assay type: functional
[12] = biological target: Paired box protein Pax-8 (Homo sapiens, UniProt Q06710); test: PAX8 transcriptional activity inhibition in RMG-I – RMG-I cells, luciferase, cherry-pick, dose response (AID 687027); assay type: functional, cell-based;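 also: luciferase reporter driven by Pax8 target thyroperoxidase promoter measured by SteadyGlo luminescence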
Chain of Paired box protein Pax-8 (Q06710 whole entry): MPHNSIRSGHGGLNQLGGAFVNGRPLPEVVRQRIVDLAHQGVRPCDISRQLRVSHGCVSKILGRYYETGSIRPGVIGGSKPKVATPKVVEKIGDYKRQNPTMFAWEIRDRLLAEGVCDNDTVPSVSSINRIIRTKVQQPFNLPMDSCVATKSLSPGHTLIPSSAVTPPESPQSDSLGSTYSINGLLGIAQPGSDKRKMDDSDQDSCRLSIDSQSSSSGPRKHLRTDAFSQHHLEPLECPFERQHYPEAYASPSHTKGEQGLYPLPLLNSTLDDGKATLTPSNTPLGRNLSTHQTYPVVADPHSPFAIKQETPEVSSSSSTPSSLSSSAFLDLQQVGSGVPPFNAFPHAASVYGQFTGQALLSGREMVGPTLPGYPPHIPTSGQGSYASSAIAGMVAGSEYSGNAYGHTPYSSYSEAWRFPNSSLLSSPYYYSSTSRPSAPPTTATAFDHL

Chain of Large T antigen (P03070 whole entry): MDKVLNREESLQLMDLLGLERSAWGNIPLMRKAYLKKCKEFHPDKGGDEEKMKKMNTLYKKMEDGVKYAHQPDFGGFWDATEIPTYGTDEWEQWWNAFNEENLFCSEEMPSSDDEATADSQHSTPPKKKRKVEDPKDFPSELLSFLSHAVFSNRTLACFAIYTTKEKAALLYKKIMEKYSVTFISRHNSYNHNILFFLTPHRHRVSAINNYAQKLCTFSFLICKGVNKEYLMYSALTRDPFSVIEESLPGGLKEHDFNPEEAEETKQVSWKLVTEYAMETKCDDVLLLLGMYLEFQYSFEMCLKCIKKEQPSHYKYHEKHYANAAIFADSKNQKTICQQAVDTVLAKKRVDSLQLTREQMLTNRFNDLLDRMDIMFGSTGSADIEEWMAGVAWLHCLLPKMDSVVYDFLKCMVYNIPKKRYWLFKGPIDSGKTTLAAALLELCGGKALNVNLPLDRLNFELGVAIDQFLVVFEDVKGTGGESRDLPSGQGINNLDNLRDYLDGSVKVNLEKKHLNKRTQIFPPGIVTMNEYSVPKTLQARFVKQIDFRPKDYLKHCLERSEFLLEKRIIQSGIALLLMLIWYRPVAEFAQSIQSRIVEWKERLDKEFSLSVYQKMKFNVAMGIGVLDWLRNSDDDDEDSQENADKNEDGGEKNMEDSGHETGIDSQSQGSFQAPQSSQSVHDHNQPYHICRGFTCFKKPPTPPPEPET
Chain of Cytochrome P450 2C19 (P33261 whole entry): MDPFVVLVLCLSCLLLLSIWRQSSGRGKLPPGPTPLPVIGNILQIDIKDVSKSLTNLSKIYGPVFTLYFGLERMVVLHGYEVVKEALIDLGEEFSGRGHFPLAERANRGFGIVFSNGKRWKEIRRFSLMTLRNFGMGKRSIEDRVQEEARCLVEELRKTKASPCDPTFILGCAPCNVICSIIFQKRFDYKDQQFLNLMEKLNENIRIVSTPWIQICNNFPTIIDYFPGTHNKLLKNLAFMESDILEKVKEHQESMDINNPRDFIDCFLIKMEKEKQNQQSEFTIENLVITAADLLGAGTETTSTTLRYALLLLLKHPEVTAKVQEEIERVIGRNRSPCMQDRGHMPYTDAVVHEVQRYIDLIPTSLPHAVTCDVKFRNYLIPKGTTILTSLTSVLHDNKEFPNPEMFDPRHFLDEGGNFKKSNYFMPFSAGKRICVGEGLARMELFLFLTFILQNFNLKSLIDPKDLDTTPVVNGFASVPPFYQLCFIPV

## C(=N\Nc1nc2ccccc2[nH]1)/c1cccs1
[1]
  IC50: 16.9 µM (active)

## COc1ccc(/C=N/NC(=O)c2sccc2OCc2ccc(F)cc2)cc1OC
[2]
  AC50: 14.1 µM (inconclusive)
[3]
  AC50: 17.8 µM (inconclusive)
[4]
  IC50: > 79 µM (inactive)

## COc1ccc(C(=O)N/N=C\c2coc3ccc(Cl)cc3c2=O)cc1
[5]
  AC50: > 120 µM (inactive)
[6]
  EC50: 19.8 µM (active)

## CC(C)(C)c1ccc(CNc2ccc([N+](=O)[O-])cn2)cc1
[7]
  IC50: 5.15 µM (active)

## COc1cc(CN2C[C@@H](CO)O[C@@H](n3cnc4c(Nc5ccccc5)ncnc43)C2)cc(OC)c1OC
[4]
  IC50: 9.14 µM (active)

## O=C(CCNC(=O)c1ccc(Br)cc1)Nc1nccs1
[8]
  EC50: > 38 µM (not active)
[9]
  EC50: 23.9 µM (inconclusive)

## COc1ccc(C2CCCCCN2C(=O)C2CCN(S(=O)(=O)c3cccc(C(C)=O)c3)CC2)cc1 (stereo not drawn)
[4]
  IC50: > 79 µM (inactive)

## Cc1cc(NC(=O)CCN2C(=O)/C(=C/c3ccccc3Cl)SC2=S)no1
[7]
  IC50: > 50 µM (not active)

## CCOc1ccc(N2C(=O)/C(=C/c3ccccc3)N=C2SC)cc1
[10]
  EC50: 108 µM (active)
[11]
  EC50: 0.135 µM (active)

## O=C(Cn1cnc2c(nnn2Cc2ccc(F)cc2)c1=O)NC1CCCC1
[8]
  EC50: > 38 µM (not active)
[9]
  EC50: > 150 µM (inactive)

## O=C(NC1CCCCC1)C1c2ccccc2C(=O)N1Cc1ccc2c(c1)OCO2 (stereo not drawn)
[7]
  IC50: 20.2 µM (not active)

## O=C(Cc1cn(Cc2cccc(Cl)c2)c2ccccc12)N1CCCC1
[7]
  IC50: 17.1 µM (not active)

## CCCc1cc(O)nc(SCC(=O)Nc2ccc(Br)cc2Br)n1
[8]
  EC50: 1.38 µM (active)
[9]
  EC50: 84.5 µM (active)

## O=C(CCCN1C(=O)/C(=C/c2cccc(Br)c2)SC1=S)Nc1ccccn1
[12]
  AC50: 5.71 µM (active)

## O=C(Cc1cc(O)n[nH]1)N/N=C/c1ccccc1Cl
[5]
  AC50: 2 µM (active)
[6]
  EC50: 1.26 µM (active)

## CCCCSc1nnc(-c2ccccc2)c2ccccc12
[7]
  IC50: 9.31 µM (not active)

## CN(C(=O)c1sc2nc(N3CCOCC3)c3c(c2c1N)CCCC3)c1ccccc1
[4]
  IC50: > 79 µM (inactive)

## Cc1ccc(-c2nnc(Nc3ccc(O)cc3)c3ccccc23)cc1S(=O)(=O)NCCO
[1]
  IC50: 13.2 µM (active)

## Cc1ccc(S(=O)(=O)/N=C(/c2ccccc2)N2CCOCC2)c(C)c1
[8]
  EC50: > 38 µM (not active)
[9]
  EC50: > 160 µM (inconclusive)

## Cn1c2c(c(=O)n(C)c1=O)C(c1ccc(Br)cc1)Nc1ccccc1O2 (stereo not drawn)
[4]
  IC50: 25.7 µM (active)

## Cc1nn(-c2ccccc2)nc1C(=O)Nc1cccc(C(=O)NC2CC2)c1
[4]
  IC50: > 79 µM (inactive)

## COCCNC(=S)N/N=C(\C)c1ccc(O)cc1
[1]
  IC50: 10.8 µM (active)

## CCCn1c(=O)c2[nH]c(-c3ccc(OCC(=O)Nc4ccc(C#N)cc4)cc3)nc2n(CCC)c1=O
[2]
  AC50: 31.6 µM (inconclusive)
[4]
  IC50: > 79 µM (inactive)

## O=C(Nc1ncc([N+](=O)[O-])s1)c1ccco1
[5]
  AC50: 24.2 µM (active)
[6]
  EC50: 17.4 µM (active)

## CCCCCCCCNC(=O)c1ccc(C)cc1
[7]
  IC50: 10.1 µM (not active)

## Cc1ccc(NC(=O)c2cc(=O)c3ccccc3o2)cc1S(=O)(=O)N1CCOCC1
[4]
  IC50: > 79 µM (inactive)

## Cc1cccc(Oc2cc(N)cc([N+](=O)[O-])c2)c1
[7]
  IC50: > 50 µM (not active)

## O=C1c2ccccc2C(=O)N1CCCC(=O)N1CCCc2ccccc21
[7]
  IC50: > 50 µM (not active)

## Cc1ccc(-n2c(S)nnc2Cc2ccccc2)c(C)c1
[8]
  EC50: 2.71 µM (active)
[9]
  EC50: > 150 µM (inactive)

## CO[C@H]1CN(C)C(=O)c2cc(NC(=O)c3nc4ccccc4s3)ccc2OC[C@H](C)N(Cc2cccnc2)C[C@H]1C
[12]
  AC50: 18.8 µM (active)

## Nc1cc(Oc2cccnc2)cc([N+](=O)[O-])c1
[7]
  IC50: > 50 µM (not active)

## C=CCn1c(SCc2nc(O)c3ccccc3n2)nnc1-c1cc2cc(Cl)ccc2o1
[8]
  EC50: 0.052 µM (active)
[9]
  EC50: > 150 µM (inactive)

## OC1=C2C(=Nc3nn(-c4ccccc4)c(O)c3C2c2ccc3c(c2)OCO3)CCC1 (stereo not drawn)
[5]
  AC50: 40.9 µM (active)
[6]
  EC50: 3.29 µM (active)

## COc1ccc(N2C(=O)C(Cl)=C(NCc3ccccc3)C2=O)cc1
[5]
  AC50: 68.8 µM (active)
[6]
  EC50: 12.9 µM (active)

## CCC(=O)Nc1c(C)nn(C(=O)CC)c1C
[5]
  AC50: > 380 µM (inactive)
[6]
  EC50: > 380 µM (inactive)

## Cc1nn(-c2cccc(Cl)c2)c2c1C(c1cccnc1)C(C#N)=C(N)O2 (stereo not drawn)
[5]
  AC50: 16.7 µM (active)
[6]
  EC50: 5.05 µM (active)
